Columns and labels:
5-HT2C receptor = biological target: T1, 5-HT2C receptor (Rattus norvegicus, UniProt P08909); assay: 5-HT2C binding (3H-Mesulergine, SR-3T3 cells); conditions: 0.5 nM 3H-Mesulergine
T1 construct: host or cells: SR-3T3 cells
T1 sequence (P08909 33-460): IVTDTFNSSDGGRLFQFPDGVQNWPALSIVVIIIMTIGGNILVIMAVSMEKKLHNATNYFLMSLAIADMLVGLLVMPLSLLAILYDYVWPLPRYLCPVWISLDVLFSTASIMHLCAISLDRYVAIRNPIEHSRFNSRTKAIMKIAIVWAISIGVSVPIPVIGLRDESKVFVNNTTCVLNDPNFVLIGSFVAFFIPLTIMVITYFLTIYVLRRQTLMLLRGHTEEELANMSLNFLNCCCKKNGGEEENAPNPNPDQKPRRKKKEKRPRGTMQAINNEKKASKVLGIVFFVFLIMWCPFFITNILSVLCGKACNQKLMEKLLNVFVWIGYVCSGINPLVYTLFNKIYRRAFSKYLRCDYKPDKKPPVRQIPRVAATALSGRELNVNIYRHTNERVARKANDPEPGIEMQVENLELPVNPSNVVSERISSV
Method: The cell suspension is centrifuged and the pellet resuspended in 50 mM Tris, HCl, pH 7.7 and stored at −80° C. For experimental use, the frozen cell pellet is thawed and homogenised with an Ultra Turrax for 10-15 seconds. 1.5 mg cell preparation is incubated with 0.5 nM 3H-Mesulergine for 60 minutes at 37° C. Incubation is terminated by rapid filtration through Filtermat B filters and bound radioactivity is determined in a Tricarb scintillation counter.

[1] = tested on: 5-HT levels in rat ventral hippocampus; assay: Microdialysis, ventral hippocampus 5-HT levels; type: in vivo; conditions: for enhancement of the effect of citalopram on ventral hippocampal 5-HT levels: 1 μmol/kg simultaneous with 10 μmol/kg citalopram; for serotonin levels as measured in microdialysis experiments: administered alone (summary statement); for effect on rat ventral hippocampal 5-HT levels: 1 μmol/kg subcutaneous; for level of extracellular serotonin: in combination with SSRIs (summary statement)
From the text: Male albino rats of a Wistar-derived strain (285-320 g; Harlan, Zeist, The Netherlands) were used for the experiments. The rats were housed in plastic cages (35×35×40 cm), and had free access to food and water. The experiments are concordant with the declarations of Helsinki and were approved by the Animal Care Committee of the Faculty of Mathematics and Natural Science of the University of Groningen.
The following drugs were used: Citalopram hydrobromide and internal standard (kindly donated by Lundbeck (Copenhagen, Denmark), courtesy Dr. Sanchez), ritanserin and ketanserin tartrate (RBI, Natick, USA). […] All drugs were administered in a volume of 1 mL per kg.
Microdialysis experiments were performed using home made I-shaped probes, made of polyacrylonitrile I sodium methyl sulphonate copolymer dialysis fiber (i.d. 220 μm, o.d. […], AN 69, Hospal, Italy). The exposed length of the membranes was 4 mm. […] Lidocaine-HCl, 10% (m/v) was used for local anaesthesia. Rats were placed in a stereotaxic frame (Kopf, USA), and probes were inserted into the ventral hippocampus (coordinates: IA: +3.7 mm, lateral: +4.8 mm, ventral: −8.0 mm from the dura mater, Paxinos and Watson, 1982) and secured with dental cement.
Probes were perfused with artificial CSF containing 147 mM NaCl, 3.0 mM KCl, 1.2 mM CaCl2, and 1.2 mM MgCl2, at a flow-rate of 1.5 μL/min (Harvard apparatus, South Natick, Ma., USA). Samples were collected on-line in a 20 μL loop and injected automatically onto the column every 15 min.
Serotonin analysis: 5-HT was analysed using HPLC with electrochemical detection. The HPLC pump (Shimadzu LC-10 AD liquid chromatograph) was connected to a reversed phase column (phenomenex hypersil 3: 3 μm, 100×2.0 mm, C18, Bester, Amstelveen, the Netherlands) followed by an electrochemical detector (Antec Leyden, Leiden, the Netherlands), working at a potential setting of 500 mV vs. Ag/AgCl reference. The mobile phase consisted of 5 g/L di-ammoniumsulfate, 500 mg/L ethylene diamino tetra acetic acid (EDTA), 50 mg/L heptane sulphonic acid and 30 μl/L of triethylamine, at a pH of 4.65 and 4.5% (w/w) methanol and water. Flow-rate of the mobile phase was 0.4 ml/min. The detection limit was 0.5 fmol 5-HT per 20 μL sample (signal to noise ratio 3).
Level of significance level was set at p<0. 05.

[2] = tested on: morphine-induced DA release in rat nucleus accumbens; conditions: cited from earlier work
[3] = tested on: levels of DA, NE and 5-HT in rat frontal cortex; conditions: cited from earlier work
in vivo = conditions: rat, sc
From the text: In the pharmacokinetic experiments, blood was drawn through a canula made of silicon tubing, which was inserted into the right jugular vein for 3.8 cm. The tubing was transferred subcutaneously to the scull of the rat, and a stainless steel inlet was connected to the tubing. The inlet was mounted on the skull with dental cement and surgical screws. After insertion, canulas were filled with a PVP solution (55% polyvinylpyrrolidon in 500 IE/mL heparin) in saline to prevent blood clotting.
Pharmacokinetic experiments: Rats were allowed to recover for at least 24 h. […]
Citalopram analysis: Citalopram was measured according to Øyehaug et al. (1982), with minor modifications. […]
With the experiments in which 5 mL plasma was obtained via the vacutainer, a similar protocol was used, but the plasma sample was now extracted three times with 10 mL of ether. An HPLC/auto-injector (1084B Liquid Chromatograph, Hewlett-Packard) was used, in combination with a fluorescence detector (470 Scanning Fluorescence detector, Waters, England) operating at an absorption wavelength of 240 nm, an emission wavelength of 296 nm, and a slit-width of 12 nm. […]
Ketanserin analysis: Ketanserin was measured using liquid-liquid extraction, followed by reversed phase chromatography in conjunction with fluorescence detection. […]

[4] = tested on: prefrontal cortex 5-HT levels; assay: Microdialysis, prefrontal cortex 5-HT levels; type: in vivo, rat
[5] = tested on: mouse forced swimming test; conditions: prior administration; ritanserin 4 mg/kg i.p., ketanserin 8 mg/kg i.p.; cited from earlier work
[6] = combined with fluoxetine; cited from earlier work
5-HT2C receptors = conditions: cited from earlier work
[7] = tested on: NE release in rat hippocampus; conditions: cited from earlier work

Q: What does the source list for `Cc1ccc2c(c1)c(-c1ccc(F)cc1)c(C)n2C1CCN(CCN2CCNC2=O)CC1` [Lu 29066, 2,5-dimethyl-3-(4-fluorophenyl)-1-[1-[2-(imidazolidin-2-on-1-yl)ethyl]-piperidin-4-yl]-1H-indole]?
A: Ki (5-HT2C receptor): 6.9 nM; enhancement of the effect of citalopram on ventral hippocampal 5-HT levels [1]: significant enhancement of the effect of citalopram; serotonin levels as measured in microdialysis experiments [1]: no increase; effect on rat ventral hippocampal 5-HT levels ([1]; alone): had no effect; level of extracellular serotonin [1]: synergistically act to increase

Q: Which “morphine-induced DA release” value [2] does the source give for `Clc1cncc(N2CCNCC2)n1` [MK-212] here?
A: inhibited

Q: Which Ki (5-HT2C receptor) does the source give for `COc1cc(OC)c(C(=O)CCCCN2CCC3(CC2)NC(=O)NC3=O)cc1NS(=O)(=O)c1ccc(C(F)(F)F)cc1` [RS 102221] here?
A: 0.56 nM

Q: What about the “enhancement of the effect of citalopram on ventral hippocampal 5-HT levels” value [1] of the same compound?
A: significant enhancement of the effect of citalopram

Q: What about the “serotonin levels as measured in microdialysis experiments” value [1] of the same compound?
A: no increase

Q: What about the “effect on rat ventral hippocampal 5-HT levels” value ([1]; alone) of the same compound?
A: had no effect

Q: And the “level of extracellular serotonin” value [1]?
A: synergistically act to increase

Q: Which results are given for `C[C@H](N)Cn1ccc2cc(F)c(Cl)cc21` [Ro 60-0175]?
A: levels of both DA and NE [3]: suppressed; levels of serotonin (5-HT) [3]: without modifying

Q: Which results are given for `Cc1cc2c(cc1Cl)N(C(=O)Nc1ccc(Oc3cccnc3C)nc1)CC2` [SB-242084]?
A: levels of both DA and NE [3]: increased; levels of serotonin (5-HT) [3]: without modifying

Q: With `CN(C)CCCC1(c2ccc(F)cc2)OCc2cc(C#N)ccc21` (centres unmarked) [citalopram] as the compound, how does the half-life (in vivo; 10 umol/kg) read?
A: ~2 h

Q: With `O=C1NCCN1CCN1CCN([C@@H]2C[C@@H](c3ccc(F)cc3)c3ccccc32)CC1` [irindalone] as the compound, how does the Ki (5-HT2C receptor) read?
A: 19 nM

Q: What does the source list for `O=C(c1ccc(F)cc1)C1CCN(CCn2c(=O)[nH]c3ccccc3c2=O)CC1` [ketanserin]?
A: Ki (5-HT2C receptor): 14 nM; augmentation of the effect of citalopram on ventral hippocampal 5-HT levels ([1]; 1 nmol/kg co-administered with 10 μmol/kg citalopram): did not augment the effect of citalopram; augmentation of the effect of citalopram on ventral hippocampal 5-HT levels ([1]; 10 nmol/kg co-administered with 10 μmol/kg citalopram): significantly enhanced the effect of citalopram; augmentation of the effect of citalopram on ventral hippocampal 5-HT levels ([1]; 100 nmol/kg co-administered with 10 μmol/kg citalopram): significantly enhanced the effect of citalopram; enhancement of the effect of fluoxetine on ventral hippocampal 5-HT levels ([1]; 100 nmol/kg simultaneous with 5 mg/kg fluoxetine): significant enhancement of the effect of fluoxetine; serotonin levels as measured in microdialysis experiments [1]: no increase; effect on ventral hippocampal 5-HT levels ([1]; alone, 100 nmol/kg subcutaneous): had no effect; augmentation of the SSRI induced increase in 5-HT levels, ventral hippocampus ([1]; different doses, simultaneous with 10 μmol/kg citalopram): dose dependent augmentation; level of extracellular serotonin [1]: synergistically act to increase; augmentation of the citalopram induced increase in cortical 5-HT levels ([4]; 1 nmol/kg co-administered with citalopram): did not augment; augmentation of the citalopram induced increase in cortical 5-HT levels ([4]; 10 nmol/kg co-administered with citalopram, effect did not reach significance): transiently enhanced the effect of citalopram; augmentation of the citalopram induced increase in cortical 5-HT levels ([4]; 100 nmol/kg simultaneous with citalopram): significant enhancement of the effect of citalopram; effect on prefrontal cortex 5-HT levels ([4]; alone, dose not stated): did not show any effect; potentiation of the effects of imipramine and desipramine (16 mg/kg i.p.) [5]: potentiated; half-life (in vivo; 100 nmol/kg): ~1.5 h

Q: What does the source list for `CN1CCN2c3ccccc3Cc3ccccc3C2C1` (centres unmarked) [mianserin]?
A: efficacy of fluoxetine in the treatment of treatment resistant patients [6]: augment the efficacy of fluoxetine; latency of onset of antidepressive effect [6]: may shorten the latency of onset

Q: Which Ki (5-HT2C receptor) does the source give for `CCc1nn(CCCN2CCN(c3cccc(Cl)c3)CC2)c(=O)n1CCOc1ccccc1` [nefazodone] here?
A: 33 nM

Q: For `Fc1ccc([C@@H]2CCNC[C@H]2COc2ccc3c(c2)OCO3)cc1` [paroxetine], which “effect of chronic administration on 5-HT2C receptors” value (5-HT2C receptors) is on record?
A: functional desensitisation

Q: With `Cc1nc2sccn2c(=O)c1CCN1CCC(=C(c2ccc(F)cc2)c2ccc(F)cc2)CC1` [ritanserin] as the compound, how does the “augmentation of the effect of citalopram on ventral hippocampal 5-HT levels” value ([1]; 10 μmol/kg i.p. given 60 minutes prior to 10 μmol/kg s.c. citalopram) read?
A: augmented the effect of citalopram significantly

Q: What about the “effect on 5-HT levels in rat ventral hippocampus” value ([1]; alone, 10 μmol/kg intraperitoneal) of the same compound?
A: did not have any effect

Q: What about the “level of extracellular serotonin” value [1] of the same compound?
A: synergistically act to increase

Q: What about the “quipazine-induced decrease of NE release” value [7] of the same compound?
A: antagonised

Q: And the “potentiation of the effects of imipramine and desipramine (16 mg/kg i.p.)” value [5]?
A: potentiated

— patent US20030032636A1, “Combination of a serotonin reuptake inhibitor and a 5-HT2C antagonist, inverse agonist or partial agonist” (H. Lundbeck A/S, priority 1999, published 2003)
